How the values were obtained:
Type in all cases: in vivo
[1] = system: Poa annua; test: Screen of short-chain organic acids for effects on roots, agarose medium, seeds inoculated with Pseudomonas strain SLB4; conditions: for Inhibitory Activity On Germination / Inhibitory Activity On Gravitropism / Inhibitory Activity On Hair Length / Inhibitory Activity On Root Length / Inhibitory Activity On Bact. Entry: organic acids 0-1 mM in 0.7% agarose, 7 days; for Inhibitory Activity On Bact. Entry: Pseudomonas strain SLB4
[2] = system: Poa reptans seedlings; test: Seeds germinated on agarose with and without 0.05% arginine
Text: In laboratory experiments, we germinated seeds of the grass Poa reptans on agarose with and without 0.05% arginine.
This is further evidence that exposure of plants to arginine results in excess production of reactive oxygen species (ROS).

[3] = system: Phragmites australis plants; test: Sodium butyrate applied to roots over a 6-week period; conditions: 10 mM applied to roots over a 6-week period

Row | Compound | seedling growth inhibition [1] | Inhibitory Activity On Germination [1] | Inhibitory Activity On Gravitropism [1] | Inhibitory Activity On Hair Length [1] | Inhibitory Activity On Root Length [1] | Inhibitory Activity On Bact. Entry [1] | chlorophylls in shoot cells ([2]; 0.05% arginine) | growth of shoots and roots ([2]; 0.05% arginine in agarose, 7 days) | colonization of chloroplasts by bacteria ([2]; 0.05% arginine, leaf cells, microscopy) | root hairs ([2]; arginine-treated seedlings) | hydrogen peroxide around roots ([2]; diaminobenzidine tetrahydrochloride stain) | superoxide in roots ([2]; nitro blue tetrazolium staining) | effects on roots and shoots [3]
1 | CC(=O)O [Acetic, Acetic acid] | seedling growth inhibition occurred | No | No | No | Yes | No |  |  |  |  |  |  | 
2 | O=C(O)c1ccccc1 [Benzoic, Benzoic acid] | seedling growth inhibition occurred | No | Yes | Yes | Yes | No |  |  |  |  |  |  | 
3 | CCCC(=O)O [Butyric, Butyric acid] | seedling growth inhibition occurred | No | Yes | Yes | Yes | Yes |  |  |  |  |  |  | 
4 | O=C(O)CC(O)(CC(=O)O)C(=O)O [Citric, Citric acid] | seedling growth inhibition occurred | No | Yes | Yes | Yes | No |  |  |  |  |  |  | 
5 | CCCCCC(=O)O [Hexanoic, Hexanoic acid] | seedling growth inhibition occurred | No | Yes | Yes | Yes | No |  |  |  |  |  |  | 
6 | O=C(O)C(=O)O [Oxalic, Oxalic acid] | seedling growth inhibition occurred | No | Yes | Yes | Yes | Yes |  |  |  |  |  |  | 
7 | CCC(=O)O [Propionic, Propionic acid] | seedling growth inhibition occurred | No | Yes | Yes | Yes | Yes |  |  |  |  |  |  | 
8 | O=C(O)[C@]1(O)C[C@@H](O)[C@@H](O)[C@H](O)C1 [Quinic, Quinic acid] |  | No | No | No | No | No |  |  |  |  |  |  | 
9 | N=C(N)NCCC[C@H](N)C(=O)O [arginine] |  |  |  |  |  |  | lack evidence of chlorophylls | repression of shoots and roots | all chloroplasts were colonized by actively motile bacteria | longer root hairs | high levels of hydrogen peroxide around roots | higher presence of superoxide | 
10 | CCCC(=O)[O-].[Na+] [sodium butyrate] |  |  |  |  |  |  |  |  |  |  |  |  | suppression of root and shoot growth, reduced root branching, root browning, and increased bacterial and fungal growth on roots

Reference: US20230067609A1, “ENDOPHYTIC MICROBES FOR GROWTH PROMOTION OF CROP PLANTS AND SUPPRESSION OF AGGRESSIVE INVASIVE PLANT SPECIES, BIOHERBICIDES COMPRISING THE SAME AND METHODS OF USE THEREOF” (priority 2018, published 2023)
